A short description of the data set: Saturated solubility at 23° C. of each dichroic dye in certain solvents (LC quantification). It counts as physicochemical. As to conditions: 24 hours agitation; for saturated solubility in ethanol: solvent ethanol; for saturated solubility in ethyl acetate: solvent ethyl acetate; for saturated solubility in isopropyl alcohol: solvent isopropyl alcohol; for saturated solubility in methanol: solvent methanol; for saturated solubility in propylene glycol 1-monomethyl ether 2-acetate: solvent propylene glycol 1-monomethyl ether 2-acetate; for saturated solubility in propylene glycol 1-monomethyl ether: solvent propylene glycol 1-monomethyl ether; for saturated solubility in tetrahydrofuran: solvent tetrahydrofuran. On the procedure:
[Measurement Method of Saturated Solubility]
This solution was sampled, and was dissolved together with 5 ml of a standard liquid in tetrahydrofuran to prepare a measurement solution. […] The standard liquid was prepared from 10 ml of hexylbenzene and 1000 ml of acetonitrile.
The liquid chromatograph (LC) measurement was carried out in the following condition.
Used column: KinetexC18, 2.6 μm, 100 mm×4.6 mm diameter
Column temperature: 40° C.
• (A liquid) 0.1%(v/v)—TFA/water • (B liquid) 0.1%(v/v)—TFA/acetonitrile 500/THF 50% • Gradient condition 0 min A liquid 60%, B liquid 40% • 30 min A liquid 0%, B liquid 100% • 35 min A liquid 0%, B liquid 100% • 35.1 min A liquid 60%, B liquid 40% • 45 min STOP TOTAL 45 min • Flow volume: 1.0 mL/min • Injection amount: 5 μL • Detection method: UV (254 nm)

The values that follow come from patent US9599759B2, “Patterned polarizing film and its production process” (Sumitomo Chemical Company, Limited, priority 2014, dated 2017).

As to `CCCCc1ccc(N=Nc2ccc(N=Nc3ccc(OCCC)cc3)cc2)cc1` [dichroic dye 2], the “saturated solubility in ethanol” value was determined as 0.001 % by mass, the “saturated solubility in ethyl acetate” value is recorded as 1.3 % by mass, the “saturated solubility in isopropyl alcohol” value is given as 0.043 % by mass and the “saturated solubility in methanol” value is 0.001 % by mass. Moreover, the “saturated solubility in propylene glycol 1-monomethyl ether 2-acetate” value was 0.89 % by mass, the “saturated solubility in propylene glycol 1-monomethyl ether” value amounted to 0.336 % by mass and the “saturated solubility in tetrahydrofuran” value is 4.5 % by mass.

As to `CCCCc1ccc(N=Nc2ccc(N=Nc3ccc(N4CCCC4)cc3)cc2)cc1` [dichroic dye 1], the “saturated solubility in ethanol” value came to 0.003 % by mass, the “saturated solubility in ethyl acetate” value was found to be 0.059 % by mass, the “saturated solubility in isopropyl alcohol” value came out at 0.002 % by mass and the “saturated solubility in methanol” value was 0.001 % by mass. In addition, the “saturated solubility in propylene glycol 1-monomethyl ether 2-acetate” value worked out at 0.077 % by mass, the “saturated solubility in propylene glycol 1-monomethyl ether” value is listed as 0.028 % by mass and the “saturated solubility in tetrahydrofuran” value came to 0.33 % by mass.
